This is an account of results in the supplement of paper PMC10307832.

For the first assay, the system named is COR-L 105. The assay can be described thus: relative viability (nuclei count vs DMSO), 5 days (fraction); higher = more cells survive. The note with it: first compound 0.04 µM. A digest of the protocol: (§1)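 Each reported value is a median over duplicate plates. It expresses relative viability: treated-well nuclei count divided by vehicle-well nuclei count. Lung cancer cell lines in 1536-well plates were dosed by pin tool a day after seeding, alone with one drug or with a fixed anchor-drug dose plus five library-drug doses (not always all listed) in √10 steps, and nuclei were counted after 5 days.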
`COc1cc(N2CCC(C(N)=O)CC2)ccc1Nc1nc(N)c(Cl)c(Nc2ccccc2S(=O)(=O)C(C)C)n1` [HG-5-88-01] + N=C(N)NC(=N)NCCc1ccccc1 [Phenformin] (partner 250 µM): the relative viability came to 0.61.
Still for that read-out and setting: the same measure for `Clc1ccc(Nc2nnc(Cc3ccncc3)c3ccccc23)cc1` [Vatalanib] + COc1cccc2cc(-c3nc([C@H]4CC[C@H](C(=O)O)CC4)n4ncnc(N)c34)[nH]c12 [OSI-027] (partner 0.5 µM): 0.694; for `Clc1ccc(Nc2nnc(Cc3ccncc3)c3ccccc23)cc1` [Vatalanib] + N=C(N)NC(=N)NCCc1ccccc1 [Phenformin] (partner 250 µM): 0.469.
Compound `Clc1ccc(Nc2nnc(Cc3ccncc3)c3ccccc23)cc1` [Vatalanib] + Nc1nc2[nH]cc(CCc3ccc(C(=O)N[C@@H](CCC(=O)O)C(=O)O)cc3)c2c(=O)[nH]1 [Pemetrexed] (partner 0.2 µM) gave a relative viability of 1.34.

Still in this assay, the particulars now being: first compound 0.1265 µM.
The compound `COc1cc(N2CCC(C(N)=O)CC2)ccc1Nc1nc(N)c(Cl)c(Nc2ccccc2S(=O)(=O)C(C)C)n1` [HG-5-88-01] + N=C(N)NC(=N)NCCc1ccccc1 [Phenformin] (partner 250 µM) registered a relative viability of 0.511.
The compound `Clc1ccc(Nc2nnc(Cc3ccncc3)c3ccccc23)cc1` [Vatalanib] + COc1cccc2cc(-c3nc([C@H]4CC[C@H](C(=O)O)CC4)n4ncnc(N)c34)[nH]c12 [OSI-027] (partner 0.5 µM) showed a relative viability of 0.59.
Turning to `Clc1ccc(Nc2nnc(Cc3ccncc3)c3ccccc23)cc1` [Vatalanib] + N=C(N)NC(=N)NCCc1ccccc1 [Phenformin] (partner 250 µM), the relative viability worked out at 0.37.
In turn, `Clc1ccc(Nc2nnc(Cc3ccncc3)c3ccccc23)cc1` [Vatalanib] + Nc1nc2[nH]cc(CCc3ccc(C(=O)N[C@@H](CCC(=O)O)C(=O)O)cc3)c2c(=O)[nH]1 [Pemetrexed] (partner 0.2 µM) registered a relative viability of 1.1.

The same assay, now with this note: first compound 0.4 µM.
Turning to `COc1cc(N2CCC(C(N)=O)CC2)ccc1Nc1nc(N)c(Cl)c(Nc2ccccc2S(=O)(=O)C(C)C)n1` [HG-5-88-01] + N=C(N)NC(=N)NCCc1ccccc1 [Phenformin] (partner 250 µM), the relative viability was 0.47.
`Clc1ccc(Nc2nnc(Cc3ccncc3)c3ccccc23)cc1` [Vatalanib] + COc1cccc2cc(-c3nc([C@H]4CC[C@H](C(=O)O)CC4)n4ncnc(N)c34)[nH]c12 [OSI-027] (partner 0.5 µM) had a relative viability of 0.721.
Same read-out and setting: the same measure for `Clc1ccc(Nc2nnc(Cc3ccncc3)c3ccccc23)cc1` [Vatalanib] + N=C(N)NC(=N)NCCc1ccccc1 [Phenformin] (partner 250 µM): 0.475.
Consider `Clc1ccc(Nc2nnc(Cc3ccncc3)c3ccccc23)cc1` [Vatalanib] + Nc1nc2[nH]cc(CCc3ccc(C(=O)N[C@@H](CCC(=O)O)C(=O)O)cc3)c2c(=O)[nH]1 [Pemetrexed] (partner 0.2 µM), for which the relative viability was 1.2.

Staying with this assay, now noted: first compound 1.265 µM.
For `COc1cc(N2CCC(C(N)=O)CC2)ccc1Nc1nc(N)c(Cl)c(Nc2ccccc2S(=O)(=O)C(C)C)n1` [HG-5-88-01] + N=C(N)NC(=N)NCCc1ccccc1 [Phenformin] (partner 250 µM), the relative viability was determined as 0.324.
For `Clc1ccc(Nc2nnc(Cc3ccncc3)c3ccccc23)cc1` [Vatalanib] + COc1cccc2cc(-c3nc([C@H]4CC[C@H](C(=O)O)CC4)n4ncnc(N)c34)[nH]c12 [OSI-027] (partner 0.5 µM), the relative viability was 0.721.
Compound `Clc1ccc(Nc2nnc(Cc3ccncc3)c3ccccc23)cc1` [Vatalanib] + N=C(N)NC(=N)NCCc1ccccc1 [Phenformin] (partner 250 µM) gave a relative viability of 0.45.
The same measure, in the same setting: the same measure for `Clc1ccc(Nc2nnc(Cc3ccncc3)c3ccccc23)cc1` [Vatalanib] + Nc1nc2[nH]cc(CCc3ccc(C(=O)N[C@@H](CCC(=O)O)C(=O)O)cc3)c2c(=O)[nH]1 [Pemetrexed] (partner 0.2 µM): 1.15.

Staying with this assay, now noted: first compound 4 µM.
For `COc1cc(N2CCC(C(N)=O)CC2)ccc1Nc1nc(N)c(Cl)c(Nc2ccccc2S(=O)(=O)C(C)C)n1` [HG-5-88-01] + N=C(N)NC(=N)NCCc1ccccc1 [Phenformin] (partner 250 µM), the relative viability was 0.296.
In turn, `Clc1ccc(Nc2nnc(Cc3ccncc3)c3ccccc23)cc1` [Vatalanib] + COc1cccc2cc(-c3nc([C@H]4CC[C@H](C(=O)O)CC4)n4ncnc(N)c34)[nH]c12 [OSI-027] (partner 0.5 µM) returned a relative viability of 0.561.
In turn, `Clc1ccc(Nc2nnc(Cc3ccncc3)c3ccccc23)cc1` [Vatalanib] + N=C(N)NC(=N)NCCc1ccccc1 [Phenformin] (partner 250 µM) registered a relative viability of 0.423.
In the case of `Clc1ccc(Nc2nnc(Cc3ccncc3)c3ccccc23)cc1` [Vatalanib] + Nc1nc2[nH]cc(CCc3ccc(C(=O)N[C@@H](CCC(=O)O)C(=O)O)cc3)c2c(=O)[nH]1 [Pemetrexed] (partner 0.2 µM), the relative viability was determined as 1.04.

Another assay deals with NCI-H441. Described as above. The note with it: first compound 0.04 µM. A digest of the protocol:
as §1
On to `COc1cc(N2CCC(C(N)=O)CC2)ccc1Nc1nc(N)c(Cl)c(Nc2ccccc2S(=O)(=O)C(C)C)n1` [HG-5-88-01] + N=C(N)NC(=N)NCCc1ccccc1 [Phenformin] (partner 250 µM), for which the relative viability worked out at 0.835.
As for `Clc1ccc(Nc2nnc(Cc3ccncc3)c3ccccc23)cc1` [Vatalanib] + COc1cccc2cc(-c3nc([C@H]4CC[C@H](C(=O)O)CC4)n4ncnc(N)c34)[nH]c12 [OSI-027] (partner 0.5 µM), the relative viability was 0.581.
For `Clc1ccc(Nc2nnc(Cc3ccncc3)c3ccccc23)cc1` [Vatalanib] + N=C(N)NC(=N)NCCc1ccccc1 [Phenformin] (partner 250 µM), the relative viability was 0.904.
On the same count and under the same terms, next, `Clc1ccc(Nc2nnc(Cc3ccncc3)c3ccccc23)cc1` [Vatalanib] + Nc1nc2[nH]cc(CCc3ccc(C(=O)N[C@@H](CCC(=O)O)C(=O)O)cc3)c2c(=O)[nH]1 [Pemetrexed] (partner 0.2 µM): 0.249.

Staying with this assay, now noted: first compound 0.1265 µM.
Turning to `COc1cc(N2CCC(C(N)=O)CC2)ccc1Nc1nc(N)c(Cl)c(Nc2ccccc2S(=O)(=O)C(C)C)n1` [HG-5-88-01] + N=C(N)NC(=N)NCCc1ccccc1 [Phenformin] (partner 250 µM), the relative viability came out at 0.789.
`Clc1ccc(Nc2nnc(Cc3ccncc3)c3ccccc23)cc1` [Vatalanib] + COc1cccc2cc(-c3nc([C@H]4CC[C@H](C(=O)O)CC4)n4ncnc(N)c34)[nH]c12 [OSI-027] (partner 0.5 µM) came in with a relative viability of 0.504.
On the same count and under the same terms, next, `Clc1ccc(Nc2nnc(Cc3ccncc3)c3ccccc23)cc1` [Vatalanib] + N=C(N)NC(=N)NCCc1ccccc1 [Phenformin] (partner 250 µM): 0.761; `Clc1ccc(Nc2nnc(Cc3ccncc3)c3ccccc23)cc1` [Vatalanib] + Nc1nc2[nH]cc(CCc3ccc(C(=O)N[C@@H](CCC(=O)O)C(=O)O)cc3)c2c(=O)[nH]1 [Pemetrexed] (partner 0.2 µM): 0.215.

Still in this assay, the particulars now being: first compound 0.4 µM.
`COc1cc(N2CCC(C(N)=O)CC2)ccc1Nc1nc(N)c(Cl)c(Nc2ccccc2S(=O)(=O)C(C)C)n1` [HG-5-88-01] + N=C(N)NC(=N)NCCc1ccccc1 [Phenformin] (partner 250 µM) yielded a relative viability of 0.852.
